The source made the active and inactive calls. The rule behind the calls is not given here.
Assays:
[1] = target: T1, Dual specificity mitogen-activated protein kinase kinase 7 (Homo sapiens, UniProt O14733); assay: Inhibition of GST-tagged human MKK7 expressed in Escherichia coli (BL21(DE3) pLysS) co-expressing human MEKK catalytic domain using biotinylated and GST-tagged rat GST-KN-SAPKalpha substrate incubated for 1 hr by time-resolved fluorescence based assay
T1 sequence (O14733 whole entry): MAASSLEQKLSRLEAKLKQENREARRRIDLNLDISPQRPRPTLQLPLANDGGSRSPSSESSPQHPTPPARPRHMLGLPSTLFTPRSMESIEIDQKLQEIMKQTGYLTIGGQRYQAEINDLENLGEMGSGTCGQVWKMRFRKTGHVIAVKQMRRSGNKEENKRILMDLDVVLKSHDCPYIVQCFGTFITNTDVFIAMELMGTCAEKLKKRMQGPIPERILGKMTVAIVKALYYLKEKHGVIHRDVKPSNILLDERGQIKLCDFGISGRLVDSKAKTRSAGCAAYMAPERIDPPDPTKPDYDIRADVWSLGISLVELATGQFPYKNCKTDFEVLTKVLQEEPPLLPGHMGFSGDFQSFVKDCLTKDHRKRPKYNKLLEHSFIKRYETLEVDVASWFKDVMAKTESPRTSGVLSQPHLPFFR

Mus musculus [2] = assay: Inhibition of anti-CD3 antibody-induced IL2 production in Balb/c mouse dosed intravenously 5 mins before anti-CD3 antibody injection and measured 2 hrs post-challenge by ELISA; assay type: functional, organism-based
Mus musculus [3] = assay: Inhibition of anti-CD3 antibody-induced IL4 production in Balb/c mouse dosed intravenously 5 mins before anti-CD3 antibody injection and measured 2 hrs post-challenge by ELISA; assay type: functional, organism-based
Mus musculus [4] = assay: Inhibition of anti-CD3 antibody-induced IFNgamma production in Balb/c mouse dosed intravenously 5 mins before anti-CD3 antibody injection and measured 2 hrs post-challenge by ELISA; assay type: functional, organism-based
[5] = target: T2, Dual specificity mitogen-activated protein kinase kinase 4 (Homo sapiens, UniProt P45985); assay: Inhibition of GST-tagged human MKK4 expressed in Escherichia coli (BL21(DE3) pLysS) co-expressing human MEKK catalytic domain using biotinylated and GST-tagged rat GST-KN-SAPKalpha substrate incubated for 2 hrs by time-resolved fluorescence based assay
T2 sequence (P45985 whole entry): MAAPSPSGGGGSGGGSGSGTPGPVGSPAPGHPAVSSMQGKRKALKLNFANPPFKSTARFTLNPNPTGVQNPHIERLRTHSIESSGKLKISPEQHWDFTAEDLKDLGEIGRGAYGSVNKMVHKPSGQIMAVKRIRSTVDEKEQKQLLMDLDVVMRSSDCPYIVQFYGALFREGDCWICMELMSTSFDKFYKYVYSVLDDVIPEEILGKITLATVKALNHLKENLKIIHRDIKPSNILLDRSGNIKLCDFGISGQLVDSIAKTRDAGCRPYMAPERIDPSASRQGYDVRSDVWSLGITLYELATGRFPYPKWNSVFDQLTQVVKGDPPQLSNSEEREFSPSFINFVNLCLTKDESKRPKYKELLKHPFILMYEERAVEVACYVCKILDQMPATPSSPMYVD

IC50 [1]	IC50 [5]	SMILES	inhibition (Mus musculus [2])	inhibition (Mus musculus [3])	inhibition (Mus musculus [4])
< 1 µM	< 1 µM	Nc1nc(N2CCCCCC2)c2c(n1)[nH]c1ccc(O)cc12	Active	Active	Active
< 1 µM	< 1 µM	Cc1nc(NC(C)CO)c2c(n1)[nH]c1ccc(O)cc12 (stereo not given)	Active	Active	Active
< 1 µM	< 1 µM	Cc1nc(N2CCCCC2)c2c(n1)[nH]c1ccc(C(=O)O)cc12	Active	Active	Active
< 1 µM	< 1 µM	Cc1nc(N2CCCCC2)c2c(n1)[nH]c1ccc(C(N)=O)cc12	Active	Active	Active

Reference: ChEMBL document CHEMBL3714742, “Pyrimido (4,5-b) indole derivatives” (2003)
